Measurements: ChEMBL document CHEMBL1201862, “PubChem BioAssay data set” (2004)
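Values below derive from 48-hour exposures of cells grown in 96-well plates, with endpoints linearly interpolated between the two concentrations bracketing the appropriate inhibition level. At the GI50, growth is halved.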 Active and inactive are the calls of the source. Rule as the data show it: active = GI50 up to about 1.1 µM and inactive = higher.

Tests used:
Assay in all cases: NCI tumour cell line growth inhibition, 48 h
[1] = test system: A498
[2] = test system: MDA-MB-435
[3] = test system: SF-539
[4] = test system: Malme-3M
[5] = test system: OVCAR-5
[6] = test system: MCF7
[7] = test system: RXF 393
[8] = test system: SW-620
[9] = test system: HCT-15
[10] = test system: UACC-257
[11] = test system: HCT-116
[12] = test system: SK-MEL-2
[13] = test system: NCI-H226
[14] = test system: HL-60
[15] = test system: U-251
[16] = test system: OVCAR-4
[17] = test system: HOP-62
[18] = test system: SF-295
[19] = test system: 786-0
[20] = test system: OVCAR-8

Compound | GI50 [1] | GI50 [2] | GI50 [3] | GI50 [4] | GI50 [5] | GI50 [6] | GI50 [7] | GI50 [8] | GI50 [9] [µM] | GI50 [10] | GI50 [11] | GI50 [12] | GI50 [13] | GI50 [14] | GI50 [15] | GI50 [16] | GI50 [17] | GI50 [18] | GI50 [19] | GI50 [20]
NC(=O)c1nnsc1N/N=C/c1ccc([N+](=O)[O-])cc1 | > 100 µM (inactive) | 76.9 µM (inactive) | > 100 µM (inactive) | > 100 µM (inactive) | > 100 µM (inactive) | > 100 µM (inactive) | > 100 µM (inactive) | > 100 µM (inactive) | > 100 | > 100 µM (inactive) | > 100 µM (inactive) | > 100 µM (inactive) | > 100 µM (inactive) | 73.5 µM (inactive) | > 100 µM (inactive) | > 100 µM (inactive) | > 100 µM (inactive) | > 100 µM (inactive) | 41 µM (inactive) | > 100 µM (inactive)
C[C@@H]1O[C@@H]2OCC[C@@H]2C2=C1C(=O)c1ccccc1C2=O | 18 µM (inactive) | 1.94 µM (inactive) | 8.85 µM (inactive) | 2.19 µM (inactive) | 1.81 µM (inactive) | 1.25 µM (inactive) | 3.46 µM (inactive) | 4.04 µM (inactive) | 15.6 | 11.5 µM (inactive) | – | 11 µM (inactive) | 26.7 µM (inactive) | 3.51 µM (inactive) | 7.53 µM (inactive) | 4.14 µM (inactive) | 17.3 µM (inactive) | 15.8 µM (inactive) | 12.3 µM (inactive) | 6.85 µM (inactive)
CC(Cl)CC(=O)OCC1CCCN2CCCCC12 (stereo not drawn) | > 100 µM (inactive) | > 100 µM (inactive) | > 100 µM (inactive) | > 100 µM (inactive) | > 100 µM (inactive) | > 100 µM (inactive) | > 100 µM (inactive) | > 100 µM (inactive) | > 100 | > 100 µM (inactive) | > 100 µM (inactive) | > 100 µM (inactive) | > 100 µM (inactive) | 54.7 µM (inactive) | > 100 µM (inactive) | > 100 µM (inactive) | > 100 µM (inactive) | > 100 µM (inactive) | > 100 µM (inactive) | > 100 µM (inactive)
CSC(CC(=O)O)C(=O)O (stereo not drawn) | > 100 µM (inactive) | > 100 µM (inactive) | > 100 µM (inactive) | > 100 µM (inactive) | > 100 µM (inactive) | > 100 µM (inactive) | > 100 µM (inactive) | > 100 µM (inactive) | > 100 | > 100 µM (inactive) | > 100 µM (inactive) | > 100 µM (inactive) | > 100 µM (inactive) | > 100 µM (inactive) | > 100 µM (inactive) | > 100 µM (inactive) | > 100 µM (inactive) | > 100 µM (inactive) | > 100 µM (inactive) | > 100 µM (inactive)
Cc1cc(O)cc2c1c(=O)c1ccccc1n2C | 45.3 µM (inactive) | > 100 µM (inactive) | 32.5 µM (inactive) | – | > 100 µM (inactive) | > 100 µM (inactive) | 41.5 µM (inactive) | > 100 µM (inactive) | > 100 | > 100 µM (inactive) | 54.7 µM (inactive) | > 100 µM (inactive) | 49.1 µM (inactive) | 66.8 µM (inactive) | 54.1 µM (inactive) | 80.2 µM (inactive) | – | 52.2 µM (inactive) | 44.4 µM (inactive) | 31.7 µM (inactive)
COC(=O)[C@H](Cc1ccccc1)NC(=O)N1CCN(C(=O)N[C@@H](Cc2ccccc2)C(=O)OC)CCN(C(=O)N[C@@H](Cc2ccccc2)C(=O)OC)CC1 | > 100 µM (inactive) | > 100 µM (inactive) | – | > 100 µM (inactive) | > 100 µM (inactive) | > 100 µM (inactive) | > 100 µM (inactive) | > 100 µM (inactive) | > 100 | > 100 µM (inactive) | > 100 µM (inactive) | > 100 µM (inactive) | > 100 µM (inactive) | > 100 µM (inactive) | > 100 µM (inactive) | > 100 µM (inactive) | > 100 µM (inactive) | > 100 µM (inactive) | > 100 µM (inactive) | > 100 µM (inactive)
COc1ccc2c(c1)CCN=C2Cc1ccccc1CCCl | 51.9 µM (inactive) | 17.1 µM (inactive) | 20.5 µM (inactive) | – | 40.5 µM (inactive) | 26 µM (inactive) | 27.8 µM (inactive) | 26.1 µM (inactive) | 20.6 | 30.7 µM (inactive) | 11.9 µM (inactive) | 25.5 µM (inactive) | 26.2 µM (inactive) | 14.2 µM (inactive) | 33.1 µM (inactive) | 22 µM (inactive) | 36.5 µM (inactive) | 20.7 µM (inactive) | 25.3 µM (inactive) | 23.4 µM (inactive)
O=C(NO)c1ccc(C(=O)NO)cc1 | > 100 µM (inactive) | 48 µM (inactive) | > 100 µM (inactive) | 9.27 µM (inactive) | > 100 µM (inactive) | > 100 µM (inactive) | 50.4 µM (inactive) | 80.9 µM (inactive) | > 100 | 56.9 µM (inactive) | 56.1 µM (inactive) | – | > 100 µM (inactive) | 42.7 µM (inactive) | 1.25 µM (inactive) | > 100 µM (inactive) | 62.2 µM (inactive) | > 100 µM (inactive) | > 100 µM (inactive) | 30.8 µM (inactive)
CC1=[N+]([O-])C(C)(C)N(O)C1(C)C | > 100 µM (inactive) | > 100 µM (inactive) | > 100 µM (inactive) | > 100 µM (inactive) | > 100 µM (inactive) | > 100 µM (inactive) | > 100 µM (inactive) | > 100 µM (inactive) | > 100 | – | > 100 µM (inactive) | > 100 µM (inactive) | > 100 µM (inactive) | > 100 µM (inactive) | > 100 µM (inactive) | > 100 µM (inactive) | > 100 µM (inactive) | > 100 µM (inactive) | > 100 µM (inactive) | > 100 µM (inactive)
N=c1oc2c(Cl)cc(Cl)cc2cc1C(=O)Nc1cccc2ccccc12 | 7.62 µM (inactive) | 27 µM (inactive) | – | 26.3 µM (inactive) | 21.7 µM (inactive) | > 53.6 µM (inactive) | 16.7 µM (inactive) | 3.62 µM (inactive) | 10.3 | > 100 µM (inactive) | 4.79 µM (inactive) | – | 19.3 µM (inactive) | 18.8 µM (inactive) | 2.73 µM (inactive) | 2.49 µM (inactive) | 7.98 µM (inactive) | 18.7 µM (inactive) | 5.71 µM (inactive) | 3.44 µM (inactive)
COC1(OC)N=C(N)C2(C#N)C(C)=C3NCN(C)N=C3C12C#N (stereo not drawn) | > 100 µM (inactive) | > 100 µM (inactive) | > 100 µM (inactive) | > 100 µM (inactive) | > 100 µM (inactive) | > 100 µM (inactive) | > 100 µM (inactive) | > 100 µM (inactive) | > 100 | > 100 µM (inactive) | > 100 µM (inactive) | > 100 µM (inactive) | > 100 µM (inactive) | > 10 µM (inactive) | > 100 µM (inactive) | – | > 100 µM (inactive) | > 100 µM (inactive) | > 100 µM (inactive) | > 100 µM (inactive)
COC(=O)/C=C1/SC(/C(=C(/[O-])OC)[n+]2ccc3ccccc3c2)=NC1=O | > 100 µM (inactive) | > 100 µM (inactive) | 23 µM (inactive) | > 100 µM (inactive) | > 100 µM (inactive) | > 100 µM (inactive) | > 100 µM (inactive) | > 100 µM (inactive) | – | > 100 µM (inactive) | > 100 µM (inactive) | > 100 µM (inactive) | > 100 µM (inactive) | > 100 µM (inactive) | 67.5 µM (inactive) | – | > 100 µM (inactive) | > 100 µM (inactive) | > 100 µM (inactive) | > 100 µM (inactive)
COC(=O)/C=C1/OC(c2ccc(C)cc2C)=CC1=O | 20.7 µM (inactive) | 15.7 µM (inactive) | 17.2 µM (inactive) | 16.4 µM (inactive) | 15.7 µM (inactive) | 8.26 µM (inactive) | 12.1 µM (inactive) | 2.82 µM (inactive) | 13.9 | – | 11.5 µM (inactive) | – | 19.5 µM (inactive) | 2.74 µM (inactive) | 17.4 µM (inactive) | > 10 µM (inactive) | 25.2 µM (inactive) | – | 11 µM (inactive) | 10 µM (inactive)
CN1CCCCC1CCN1CCCCC1 (stereo not drawn) | > 100 µM (inactive) | > 100 µM (inactive) | – | > 100 µM (inactive) | > 100 µM (inactive) | > 100 µM (inactive) | > 100 µM (inactive) | > 100 µM (inactive) | > 100 | > 100 µM (inactive) | > 100 µM (inactive) | > 100 µM (inactive) | > 100 µM (inactive) | 83 µM (inactive) | > 100 µM (inactive) | > 100 µM (inactive) | > 100 µM (inactive) | > 100 µM (inactive) | > 100 µM (inactive) | > 100 µM (inactive)
Oc1ccc2c(c1)-c1c(c3cc(O)ccc3n1CCN1CCOCC1)CC2 | 21 µM (inactive) | 17.8 µM (inactive) | 22.6 µM (inactive) | – | 34.8 µM (inactive) | 18.7 µM (inactive) | 19.7 µM (inactive) | 23 µM (inactive) | 19.2 | 36.6 µM (inactive) | 19.1 µM (inactive) | 17.6 µM (inactive) | 18.5 µM (inactive) | 23.2 µM (inactive) | 19.7 µM (inactive) | 25.4 µM (inactive) | 19.5 µM (inactive) | 20.1 µM (inactive) | 21.9 µM (inactive) | 30.4 µM (inactive)
